Test results: paper PMC6067752, “Investigations on the mode of action of gephyronic acid, an inhibitor of eukaryotic protein translation from myxobacteria” (PLoS ONE, 2018)

Columns and labels:
[1] = biological target: T1, eukaryotic initiation factor 2 subunit alpha (eIF2α) (Homo sapiens, UniProt P05198); experiment: pull-down with streptavidin beads, western blot; type: biochemical; conditions: KB-3-1 cell lysate; native protein; 4 °C 1 h with compound; labelled compound; indirect binding evidence
T1 construct: gene EIF2S1; native endogenous protein in KB-3-1 cell lysate (M-PER), 36 kDa band; alpha subunit of the heterotrimeric eIF2 complex; detected by western blot

[2] = test system: KB-3-1; experiment: cells; parameters: species or system transformed mammalian cell lines; MTT assay (formazan absorbance at 595 nm), anti-proliferative activity on transformed cell lines; conditions: Homo sapiens, KB 3-1; read-out: Gephyronic acid IC50
[3] = test system: PC-3; experiment: cells; parameters: species or system transformed mammalian cell lines; MTT assay (formazan absorbance at 595 nm), anti-proliferative activity on transformed cell lines; conditions: Homo sapiens, PC-3; read-out: Gephyronic acid IC50
[4] = test system: A-549; experiment: cells; parameters: species or system transformed mammalian cell lines; MTT assay (formazan absorbance at 595 nm), anti-proliferative activity on transformed cell lines; conditions: Homo sapiens, A549; read-out: Gephyronic acid IC50
[5] = test system: L-929; experiment: cells; parameters: species or system transformed mammalian cell lines; MTT assay (formazan absorbance at 595 nm), anti-proliferative activity on transformed cell lines; conditions: Mus musculus, L929; read-out: Gephyronic acid IC50
[6] = test system: MCF-7; experiment: cells; parameters: species or system transformed mammalian cell lines; MTT assay (formazan absorbance at 595 nm), anti-proliferative activity on transformed cell lines; conditions: Homo sapiens, MCF7; read-out: Gephyronic acid IC50
[7] = biological target: T1, eukaryotic initiation factor 2 subunit alpha (eIF2α); experiment: DARTS (pronase protection, western blot); type: biochemical; conditions: KB-3-1 cell lysate; native protein; 2 h at room temperature with compound, pronase 30 min at 37 °C; indirect binding evidence

T1 sequence (P05198 whole entry): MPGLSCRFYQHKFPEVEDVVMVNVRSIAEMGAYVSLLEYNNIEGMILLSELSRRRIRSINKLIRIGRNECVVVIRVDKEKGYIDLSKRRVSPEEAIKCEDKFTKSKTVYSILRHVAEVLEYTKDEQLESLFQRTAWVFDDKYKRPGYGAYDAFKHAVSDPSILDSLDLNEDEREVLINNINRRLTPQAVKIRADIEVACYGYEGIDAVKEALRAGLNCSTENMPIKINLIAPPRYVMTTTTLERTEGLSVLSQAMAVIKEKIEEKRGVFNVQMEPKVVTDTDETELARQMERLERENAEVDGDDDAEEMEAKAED

Row | SMILES | pull-down with streptavidin beads, western blot [1] | IC50 [2] [µM] | IC50 [3] [µM] | IC50 [4] [µM] | IC50 [5] [µM] | IC50 [6] [µM] | DARTS (pronase protection, western blot) [7]
1 | COC(=O)C[C@H](OC(=O)CCCC[C@@H]1SC[C@@H]2NC(=O)N[C@@H]21)[C@@H](C)[C@H](OC)C(C)(C)C(=O)[C@@H](C)C[C@H](C)[C@H](O)[C@]1(C)O[C@@H]1[C@@H](C)C=C(C)C [4b, biotinylated GA methyl ester 4b] | eIF2α was clearly present in preparations with biotinylated GA ester | – | – | – | – | – | –
2 | CO[C@@H]([C@H](C)[C@@H](O)CC(=O)O)C(C)(C)C(=O)[C@@H](C)C[C@H](C)[C@H](O)[C@@]1(C)O[C@@H]1[C@@H](C)C=C(C)C [compound 1, gephyronic acid] | – | 0.014 | 0.006 | 0.008 | 0.1 | 0.014 | GA binding protected the initiation factor eIF2α in a dose dependent manner.
